Source: patent US7611863B2, “Selective staining of biomembranes using voltage-sensitive dyes” (Max-Planck-Gesellschaft zur Foerderung der Wissenschaften …, priority 2004, dated 2009)

How the values were obtained:
[1] = molecular target: alkaline phosphatase from the human placenta (PLAP) (Homo sapiens, UniProt P05187); assay: Enzymatic dye hydrolysis (HPLC, isothermal titration calorimetry); assay type: biochemical
Procedure: Enzyme kinetics with ITC. We performed enzyme kinetic measurements with Di-4-ASPP phosphate as a substrate of PLAP by isothermal titration calorimetry (ITC). We used Tris-NaCl buffer (20 mM Tris, 100 mM NaCl, pH 8.1) without Zn^2+ and Mg^2+ although most alkaline phosphatases depend on these metals for maximum activity. However, divalent cations bind to lipid membranes and induce their aggregation and fusion^25. The pH-value is a compromise between optimal enzymatic activity (at pH 9.8) and compatibility with vesicles and cells. The microcalorimeter (VP-ITC, Microcal, Northampton, Mass., USA) was thermostatted to 25.0° C., with reference power set to 10 μcal/sec and a stirring speed of 310 rpm. The sample cell contained a PLAP solution of 0.19 DEA Units/ml activity and the syringe was filled with a 1 mM solution of Di-4-ASPP phosphate. The reference cell contained buffer only. Different amounts of dye were injected into the sample cell in separate experiments to cover a concentration range from 2 μM to 15 μM. To determine the heats of dilution alone, injections were carried out with pure buffer. For both hydrolysis and dilution, the baseline signal was approximated by linear or polynomial functions and subtracted from the raw signal resulting in a curve with a flat baseline. The dilution signal was subtracted from the signal of the enzymatic reaction to yield the final calorimeter tracing of enzymatic hydrolysis. The molar heat of reaction was obtained by integration. The initial velocities were determined from the average heat of reaction of the first 10 to 30 seconds after the onset of the reaction, using the mean molar heat of reaction as a proportionality constant. […]
Enzymatic dye hydrolysis. […] We evaluated the heat production per unit time that is proportional to the reaction rate, with the molar heat of reaction being the constant of proportionality^38. […] By calibration with that energy, the initial reaction velocity was evaluated.

[2] = Enzyme induced staining of giant vesicles; assay type: biochemical; conditions: giant POPC vesicles, 9.8 μM dye phosphate, PLAP added
Procedure: Enzyme induced staining of giant vesicles. Giant POPC vesicles were prepared by electroswelling^27,28. 5 μl of a 2 mM lipid solution in diethylether/methanol (9:1, v/v) were applied to a pair of planar electrodes of indium tin oxide coated with 70 nm of silica. After evaporation of the solvent under reduced pressure (0.1 mbar), 2 ml of 300 mM sucrose were added and giant vesicle formation was promoted by applying AC voltage to the electrodes. After formation was complete, vesicles were transferred to 35 mm polypropylene cell culture dishes (BD Biosciences Europe, Le Pont de Claix, France) and diluted in the same buffer. They were used the same day.
For enzyme kinetic measurements at room temperature, 400 μl of the giant vesicle stock solution were transferred to a culture dish containing 3,600 μl buffer (20 mM Tris, 100 mM NaCl, 120 mM Glucose, pH 8.1). […] The fluorescence of a selected giant vesicle with a diameter of 10 to 40 μm was observed using a microscope (Axioskop, Zeiss, Oberkochen, Germany) equipped with a 100 water immersion objective and a b/w CCD camera (Sony ICX 285 Chip, Theta System, Gröbenzell, Germany). […] The fluorescence was detected through the dichroic mirror and a long pass filter (510 nm). […] Images were recorded every 10 or 20 seconds before and after addition of the phosphatase. […]

alkaline phosphatase from the human placenta (PLAP), sequence (P05187 23-506): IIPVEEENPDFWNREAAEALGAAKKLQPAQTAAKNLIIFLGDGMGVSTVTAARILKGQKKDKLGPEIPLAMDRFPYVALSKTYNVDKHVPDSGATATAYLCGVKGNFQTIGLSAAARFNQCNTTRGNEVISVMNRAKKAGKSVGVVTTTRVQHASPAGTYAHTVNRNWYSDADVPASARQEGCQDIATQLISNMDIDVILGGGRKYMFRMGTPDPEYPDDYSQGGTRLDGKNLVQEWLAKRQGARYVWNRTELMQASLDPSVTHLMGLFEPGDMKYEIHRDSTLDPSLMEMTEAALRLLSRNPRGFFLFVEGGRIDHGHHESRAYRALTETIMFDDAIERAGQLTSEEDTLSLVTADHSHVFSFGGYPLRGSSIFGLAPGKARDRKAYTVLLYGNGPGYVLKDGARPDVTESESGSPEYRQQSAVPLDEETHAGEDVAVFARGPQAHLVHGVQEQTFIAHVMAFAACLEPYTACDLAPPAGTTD

- acceptance as substrate by PLAP ([1]; ITC kinetics): accepted by PLAP as a regular substrate
- molar heat of hydrolysis (endothermal) ([1]; ITC, 25.0° C., Tris-NaCl pH 8.1): 0.263 ± 0.048 kcal/mol
- ratio of fluorescence intensities F∞/F0 [2]: 9-13
SMILES: CCCCN(CCCC)c1ccc(/C=C/c2cc[n+](CCCOP(=O)([O-])O)cc2)cc1 [Di-4-ASPP phosphate]
- conversion by soluble PLAP (HPLC analysis) ([1]; after incubation, enzyme removed by ultrafiltration): quantitatively converted to Di-4-ASPP alcohol
